# Key:
# WT and Ts65Dn mice = test: Open-field locomotor assay (LMA), 30 min session; type: in vivo, mouse; settings: WT and Ts65Dn mice
# Experimental: Following baseline determinations and group assignments, WT and Ts65Dn mice received intraperitoneal (i.p.) injections once/day (08:00) for the two-week duration of the drug treatment regimen (FIG. 1). Drugs were dissolved in physiological saline. Two drops of Tween 80 were used to facilitate solution formation for flumazenil. Picrotoxin was initially made up at 50× concentration in 20% ethanol and then diluted down to a […] solution with 0.4% ETOH in saline. Doses of drugs were based on previous behavioral research in mice (1 mg/kg for PTX and 10 mg/kg for flumazenil). Injections were given in a volume of 10 ml/kg. A vehicle control was run along side the treatment groups (0.4% ETOH in saline).
# FIG. 1 graphically depicts the protocol. After habituation to the animal facility, mice were tested for baseline behaviors in the open-field locomotor assay (LMA)(30 min session) and the novel object recognition assay. Primary experimental groups were divided by genotype (Ts65Dn mice and wild-type control littermates). These two groups were further divided into drug treatments (vehicle, PTX and flumazenil) with a targeted n-size of 8 mice/group (24 WT and 24 Ts65Dn mice total). The group assignments were made in a semi-random process due to constraints in animal availability (staggered shipping) and choice of initial treatment groups (e-mail documentation between Bilsky laboratory and Cypress Bioscience on file). Daily morning injections began on Day 1 and went through the morning of Day 14. On Days 7/8 and 14/15 (13:00) mice were tested in the behavioral assay. Mice were kept for an additional two weeks and re-tested on Days 21/22 and 28/29 to assess the duration of the drug treatment effect.
# General levels of arousal, locomotor activity and anxiety were assessed using an automated open-field activity monitoring system (Coulbourn Instruments with TruScan software). The open field test that were run were fully automated assays that quantified many different aspects and patterns of movement, including total distance traveled, time spent moving, rearing, and various stereotypic patterns of activity. The software calculates the time spent in the middle portions of the open field versus the outer zones alongside the outside walls. These variables can be used as one measure of general anxiety levels.
# Mice were placed into an open field (26 cm×26 cm) in a brightly lit room. Two sensor rings (x-y plane and a vertical z plane) generate an array of infrared beams that surround the chamber. The pattern of beam breaks was recorded and the data fed into a personal computer. The TruScan software interpreted the beam breaks to calculate the movement variables and patterns of activity, with a temporal resolution of 100 msec. A 30 minutes session was used for assessment of the mice on Day 0 (Baseline) and then on Days 1, 7, 14, 21 and 28. Data were exported into an Excel spreadsheet, graphed and analyzed using parametric and non-parametric statistics.
# Ts65Dn mice = type: in vivo, mouse
# Experimental: (§1) A 4-week longitudinal crossover study is carried out following the method outlined by Fernandez et al., supra. Wild-type and Ts65Dn mice (3-4 months of age) are randomly assigned to groups receiving daily i.p. injections of saline or flumazenil (1.0 mg/kg), and are submitted to four weekly repetitions of object recognition testing, in which the animals are serially presented with four different object sets. At the 2-week midpoint of the experimental period, wild-type and Ts65Dn mice that have been receiving saline are randomly segregated into groups that either continue to receive daily saline injections or begin to receive daily injections of flumazenil. Conversely, wild-type and Ts65Dn mice that have been chronically administered flumazenil in the first 2 weeks of testing are switched onto a saline regimen. Alongside saline and flumazenil, bilobalide (i.p. 5.0 mg/kg) may be evaluated as a positive control. Bilobalide is a picrotoxin-like compound that may safely be administered for the whole 4-week experiment.
# (§2) Flumazenil may also be tested for its effects on declarative memory in the novel object recognition test and in a modified spontaneous alternation task. Wild-type and Ts65Dn mice may be administered flumazenil (3 mg/kg in milk via voluntary oral feeding or 1 mg/kg i.p.). The wild-type and Ts65Dn mice are administered from 5 to 30 doses of milk or milk-flumazenil (or saline or flumazenil solution i.p.). The mice are then subjected to two repetitions of novel object recognition testing or three daily T-maze sessions at the tail end of the treatment regimen. […] Comparison of treated and untreated Ts65Dn mice will provide controls for any possible arm bias in the spontaneous alternation task.
# as §1, with “bretazenil” for “flumazenil”, “bretazenil.” for “flumazenil.”, “bretazenil,” for “flumazenil,”
# as §2, with “Bretazenil may” for “Flumazenil may”, “administered bretazenil” for “administered flumazenil”
compound,measurement,setting,value
"CCOC(=O)c1ncn2c1CN(C)C(=O)c1cc(F)ccc1-2 [flumazenil, 8-fluoro-5,6-dihydro-5-methyl-6-oxo-4H-imidazo[1,5-a]benzodiazepine-3-carboxylic acid ethyl ester]",LMA vertical rearing,"WT and Ts65Dn mice; PTX during drug administration phases, flumazenil over the 4 week testing regimen",least effect
same,LMA marginal distance traveled,"WT and Ts65Dn mice; across sessions, PTX 1 mg/kg, flumazenil 10 mg/kg i.p.",very little habituation across sessions
same,object recognition performance,"Ts65Dn mice; 4-week crossover, flumazenil or bretazenil 1.0 mg/kg i.p. for 2 weeks, bilobalide 5.0 mg/kg i.p. throughout",normalized object recognition performance
same,discrimination indices in the object recognition task,"Ts65Dn mice; 5 to 30 doses, 3 mg/kg in milk orally or 1 mg/kg i.p.",on a par with those of wild-type mice
same,"novel object recognition testing, long term","Ts65Dn mice; up to at least 2 months after treatment, treated for at least about 15 days",long-term improvement

# Reference: US20090270373A1, “TREATMENT OF DOWN SYNDROM WITH BENZODIAZEPINE RECEPTOR ANTAGONISTS” (Cypress Biosciences, Inc., priority 2008, published 2009)
